Experimental findings from patent US20110178104A1, “Anti-Heparin Compounds” (POLYMEDIX INC., priority 2010, published 2011) are described below.

In one experiment the test system is fondaparinux (FONDAPX). As to the kind of experiment: FXa chromogenic assay (absence of plasma), fondaparinux. Conditions: fondaparinux 0.02 μg/mL, absence of plasma.
Another experiment has as its system enoxaparin (ENOX). The experiment is described as follows: FXa chromogenic assay (absence of plasma), enoxaparin. Conditions: enoxaparin 0.1 μg/mL, absence of plasma.
Experiment [1] relates to unfractionated heparin (UFH). As to the kind of experiment: aPTT clotting assay, UFH 0.2 U/mL in plasma (Example 7). Format: biochemical. Conditions: UFH 0.2 U/mL in plasma. As to the method:
aPTT clotting Assay. Unfractionated heparin was mixed with plasma at a final concentration of 0.2 U/mL. […] The ACL Elite Hemostasis analyzer (Beckman Coulter™) was used to add aPTT reagent (HemosIL SynthASil) to supplemented plasma. Clotting was initiated by addition of CaCl2 and time to clot was recorded.

With `COc1ccc(NC(=O)[C@H](CCCCN)NC(=O)c2cc(NC(=O)[C@H](CCCCN)NC(=O)c3cc(NC(=O)[C@H](CCCCN)NC(=O)c4c[nH]c5ccccc45)ccc3OC)ccc2OC)cc1C(N)=O` [Compound 100], the “FONDAPX (FXa) EC50” value in the experiment on fondaparinux (FONDAPX) was 2.482 µg/mL. In the experiment on enoxaparin (ENOX), the “ENOX (FXa) EC50” value stood at 1.12 µg/mL. The “UFH (aPTT) EC50” value in experiment [1] was 7.13 µg/mL.
Taken in the same sequence, the figures for `COc1ccc(NC(=O)[C@H](CCCCN)NC(=O)c2cc(NC(=O)[C@H](CCCCN)NC(=O)c3cc(NC(=O)[C@H](CCCCN)NC(=O)c4cc(NC(=O)[C@@H](N)Cc5c[nH]c6ccccc56)ccc4OC)ccc3OC)ccc2OC)cc1C(N)=O` [Compound 101] were 4.158 µg/mL, 0.8434 µg/mL and “approx 16 μg/mL”.
On the same counts, the results for `COc1ccc(NC(=O)[C@H](CCCCN)NC(=O)c2cc(NC(=O)[C@H](CCCCN)NC(=O)c3cc(NC(=O)[C@H](CCCCN)NC(=O)c4cc(C(=O)NCCCCCN)c(OC)cc4OC)ccc3OC)ccc2OC)cc1C(N)=O` [Compound 102] are 2.938 µg/mL, 0.3328 µg/mL and 3.32 µg/mL.
Taken in the same sequence, the figures for `COc1cc(OC)c(C(=O)N[C@H]2CC[C@@H](NC(=O)c3cc(C(=O)NCCN(C)C)c(OCCCCCNC(=N)N)cc3OCCCCCNC(=N)N)CC2)cc1C(=O)N[C@H]1CC[C@@H](NC(=O)c2cc(C(=O)NCCN(C)C)c(OCCCCCNC(=N)N)cc2OCCCCCNC(=N)N)CC1` [Compound 103] were 0.64 µg/mL, 0.23 µg/mL and over 4 µg/mL.
In the case of `COc1cc(OC)c(C(=O)N[C@H]2CC[C@H](NC(=O)c3cc(C(=O)NCCN(C)C)c(OCCCCCNC(=N)N)cc3OCCCCCNC(=N)N)CC2)cc1C(=O)N[C@H]1CC[C@@H](NC(=O)c2cc(C(=O)NCCN(C)C)c(OCCCCCNC(=N)N)cc2OCCCCCNC(=N)N)CC1` [Compound 104], the “FONDAPX (FXa) EC50” value with fondaparinux (FONDAPX) came to 2.02 µg/mL. The “ENOX (FXa) EC50” value in the experiment on enoxaparin (ENOX) amounted to 0.36 µg/mL. In addition, the “UFH (aPTT) EC50” value in experiment [1] is over 10 µg/mL.
Taken in the same sequence, the figures for `COc1cc(OC)c(C(=O)N[C@H]2CC[C@@H](NC(=O)c3cc(C(=O)NCCN(C)C)c(OCCNC(=N)N)cc3OCCNC(=N)N)CC2)cc1C(=O)N[C@H]1CC[C@@H](NC(=O)c2cc(C(=O)NCCN(C)C)c(OCCNC(=N)N)cc2OCCNC(=N)N)CC1` [Compound 105] were over 20 µg/mL, 2.07 µg/mL and “Inactive”.
Taken in the same sequence, the figures for `COc1cc(OC)c(C(=O)N[C@H]2CC[C@H](NC(=O)c3cc(C(=O)NCCN(C)C)c(OCCNC(=N)N)cc3OCCNC(=N)N)CC2)cc1C(=O)N[C@H]1CC[C@H](NC(=O)c2cc(C(=O)NCCN(C)C)c(OCCNC(=N)N)cc2OCCNC(=N)N)CC1` [Compound 106] were over 20 µg/mL, 1.66 µg/mL and “Inactive”.
Regarding `COc1ccc(NC(=O)[C@H](CCCCN)NC(=O)c2cc(NC(=O)[C@H](CCCCN)NC(=O)c3cc(NC(=O)[C@H](CCCCN)NC(=O)c4cc(NC(=O)[C@@H](N)CCCCN)ccc4OC)ccc3OC)ccc2OC)cc1C(=O)NCC(=O)O` [Compound 107], the “FONDAPX (FXa) EC50” value in the experiment with fondaparinux (FONDAPX) came out at 6.961 µg/mL. For the same molecule, the “ENOX (FXa) EC50” value in the experiment with enoxaparin (ENOX) was determined as 0.498 µg/mL. Moreover, in experiment [1], the “UFH (aPTT) EC50” value turned out to be 1.34 µg/mL.
On the same counts, the results for `COc1ccc(NC(=O)[C@H](CCCCN)NC(=O)c2cc(NC(=O)[C@H](CCCCN)NC(=O)c3cc(NC(=O)[C@H](CCCCN)NC(=O)c4cc(NC(=O)[C@@H](N)CCCCN)ccc4OC)ccc3OC)ccc2OC)cc1C(=O)NCCC(=O)O` [Compound 108] are 10.57 µg/mL, 0.6085 µg/mL and 1.50 µg/mL.
Taken in the same sequence, the figures for `COc1ccc(NC(=O)[C@H](CCCCN)NC(=O)c2cc(NC(=O)[C@H](CCCCN)NC(=O)c3cc(NC(=O)[C@H](CCCCN)NC(=O)c4cc(NC(=O)[C@@H](N)CCCCN)ccc4OC)ccc3OC)ccc2OC)cc1C(=O)N[C@@H](C)C(=O)O` [Compound 109] were 9.853 µg/mL, 0.6089 µg/mL and 2.23 µg/mL.
On the same counts, the results for `COc1ccc(NC(=O)[C@H](CCCCN)NC(=O)c2cc(NC(=O)[C@H](CCCCN)NC(=O)c3cc(NC(=O)[C@H](CCCCN)NC(=O)c4cc(NC(=O)[C@@H](N)CCCCN)ccc4OC)ccc3OC)ccc2OC)cc1C(=O)N[C@@H](Cc1ccccc1)C(=O)O` [Compound 110] are 2.951 µg/mL, 0.694 µg/mL and 2.31 µg/mL.
In the case of `COc1ccc(NC(=O)[C@H](CCCCN)NC(=O)c2cc(NC(=O)[C@@H](N)CCCCN)ccc2OC)cc1C(=O)N[C@@H](CCCCN)C(=O)Nc1ccc(OC)c(C(=O)N[C@@H](CCCCN)C(=O)Nc2ccc(OC)c(C(=O)N[C@H](Cc3ccccc3)C(=O)O)c2)c1` [Compound 111], in the experiment with fondaparinux (FONDAPX), the “FONDAPX (FXa) EC50” value is over 20 µg/mL. In the experiment on enoxaparin (ENOX), the “ENOX (FXa) EC50” value turned out to be 1.348 µg/mL. Further, in experiment [1], the “UFH (aPTT) EC50” value was 2.54 µg/mL.
`COc1ccc(NC(=O)[C@H](CCCCN)NC(=O)c2cc(NC(=O)[C@H](CCCCN)NC(=O)c3cc(NC(=O)[C@H](CCCCN)NC(=O)c4cc(NC(=O)[C@@H](N)CCCCN)ccc4OC)ccc3OC)ccc2OC)cc1C(=O)N[C@@H](Cc1ccc(O)cc1)C(=O)O` [Compound 112]: the “FONDAPX (FXa) EC50” value in the experiment on fondaparinux (FONDAPX) was 0.717 µg/mL. Further, the “ENOX (FXa) EC50” value in the experiment on enoxaparin (ENOX) worked out at 0.257 µg/mL. Further, the “UFH (aPTT) EC50” value in experiment [1] was 2.71 µg/mL.
On to `COc1ccc(NC(=O)[C@H](CCCCN)NC(=O)c2cc(NC(=O)[C@H](CCCCN)NC(=O)c3cc(NC(=O)[C@H](CCCCN)NC(=O)c4cc(NC(=O)[C@@H](N)CCCCN)ccc4OC)ccc3OC)ccc2OC)cc1C(=O)N[C@@H](Cc1c[nH]c2ccccc12)C(=O)O` [Compound 113], for which the “FONDAPX (FXa) EC50” value in the experiment with fondaparinux (FONDAPX) is 0.4025 µg/mL. Further, the “ENOX (FXa) EC50” value in the experiment on enoxaparin (ENOX) amounted to 0.2306 µg/mL. Besides, the “UFH (aPTT) EC50” value in experiment [1] came out at 4.89 µg/mL.
On the same counts, the results for `COc1ccc(NC(=O)[C@H](CCCCN)NC(=O)c2cc(NC(=O)[C@@H](N)CCCCN)ccc2OC)cc1C(=O)N[C@@H](CCCCN)C(=O)Nc1ccc(OC)c(C(=O)N[C@@H](CCCCN)C(=O)Nc2ccc(OC)c(C(=O)N[C@H](C(=O)O)C(C)C)c2)c1` [Compound 114] are 12.56 µg/mL, 0.9758 µg/mL and 3.00 µg/mL.
Taken in the same sequence, the figures for `COC(=O)c1cc(NC(=O)[C@H](CCCCN)NC(=O)c2cc(NC(=O)[C@H](CCCCN)NC(=O)c3cc(NC(=O)[C@H](CCCCN)NC(=O)c4cc(NC(=O)[C@@H](N)CCCCN)ccc4OC)ccc3OC)ccc2OC)ccc1OC` [Compound 115] were over 20 µg/mL, 0.7967 µg/mL and 2.44 µg/mL.
As to `COc1ccc(NC(=O)[C@H](CCCCN)NC(=O)c2cc(NC(=O)[C@H](CCCCN)NC(=O)c3cc(NC(=O)[C@H](CCCCN)NC(=O)c4cc(NC(=O)[C@@H](N)CCCCN)ccc4OC)ccc3OC)ccc2OCC(=O)O)cc1C(N)=O` [Compound 117], the “FONDAPX (FXa) EC50” value in the experiment with fondaparinux (FONDAPX) came to 7.052 µg/mL. Also, in the experiment on enoxaparin (ENOX), the “ENOX (FXa) EC50” value is 0.9281 µg/mL. Further, in experiment [1], the “UFH (aPTT) EC50” value turned out to be 1.94 µg/mL.
On the same counts, the results for `COc1ccc(NC(=O)[C@H](CCCCN)NC(=O)c2cc(NC(=O)[C@H](CCCCN)NC(=O)c3cc(NC(=O)[C@H](CCCCN)NC(=O)c4cc(NC(=O)[C@@H](N)CCCCN)ccc4OCC(=O)O)ccc3OC)ccc2OC)cc1C(N)=O` [Compound 119] are 13.39 µg/mL, 0.9421 µg/mL and 11.56 µg/mL.
In the case of `COc1ccc(NC(=O)[C@H](CCCNC(=N)N)NC(=O)c2cc(NC(=O)[C@H](CCCNC(=N)N)NC(=O)c3cc(NC(=O)[C@H](C)NC(=O)CCCCNC(=N)N)ccc3OC)ccc2OC)cc1C(N)=O` [Compound 120], the “FONDAPX (FXa) EC50” value with fondaparinux (FONDAPX) came out at 5.96 µg/mL. For the same molecule, the “ENOX (FXa) EC50” value with enoxaparin (ENOX) was 1.36 µg/mL. The “UFH (aPTT) EC50” value in experiment [1] stood at 9.62 µg/mL.
Take `[2H]C([2H])(CN)C([2H])([2H])C[C@H](N)C(=O)Nc1ccc(OC)c(C(=O)N[C@@H](CCCCN)C(=O)Nc2ccc(OC)c(C(=O)N[C@@H](CCCCN)C(=O)Nc3ccc(OC)c(C(=O)N[C@@H](CCCCN)C(=O)Nc4ccc(OC)c(C(N)=O)c4)c3)c2)c1` [Compound 121]: in the experiment on fondaparinux (FONDAPX), the “FONDAPX (FXa) EC50” value was found to be 8.293 µg/mL. For the same molecule, in the experiment with enoxaparin (ENOX), the “ENOX (FXa) EC50” value was 0.4289 µg/mL. Further, the “UFH (aPTT) EC50” value in experiment [1] is 7.48 µg/mL.
Taken in the same sequence, the figures for `COc1ccc(NC(=O)[C@H](CCCCN)NC(=O)c2cc(NC(=O)[C@H](CCCCN)NC(=O)c3cc(NC(=O)[C@H](CCCCN)NC(=O)c4cc(NC(=O)[C@H](N)CCCCN)ccc4OC)ccc3OC)ccc2OC)cc1C(N)=O` [Compound 122] were 6.037 µg/mL, 0.3254 µg/mL and 3.91 µg/mL.
In the case of `COc1ccc(NC(=O)[C@H](CCCNC(=N)N)NC(=O)c2cc(NC(=O)[C@@H](N)CCCNC(=N)N)ccc2OC)cc1C(=O)N[C@@H](CCCNC(=N)N)C(=O)Nc1ccc(OC)c(C(=O)N[C@@H](CCCNC(=N)N)C(=O)Nc2ccc(OC)c(C(=O)N3CCCC3C(N)=O)c2)c1` (stereo partly drawn) [Compound 123], the “FONDAPX (FXa) EC50” value in the experiment with fondaparinux (FONDAPX) was “inactive”. Besides, in the experiment on enoxaparin (ENOX), the “ENOX (FXa) EC50” value is 1.934 µg/mL. In experiment [1], the “UFH (aPTT) EC50” value is over 10 µg/mL.
Taken in the same sequence, the figures for `COc1ccc(NC(=O)[C@H](CCCCN)NC(=O)c2cc(NC(=O)[C@H](CCCCN)NC(=O)c3cc(NC(=O)[C@H](CCCCN)NC(=O)c4cc(NC(=O)[C@@H](N)CCCCN)cc(C(F)(F)F)c4)ccc3OC)ccc2OC)cc1C(N)=O` [Compound 124] were 6.94 µg/mL, 0.418 µg/mL and 7.39 µg/mL.
